# Assay results taken from patent publication US4788216A, “Medicinal uses for podophyllotoxins” (Conpharm AB, priority 1984, dated 1988).
# Values joined by “and” are separate entries in the source; they are usually repeats but may differ in a detail not shown here. Equal entries are not always repeated.
# Columns and labels:
# [1] = tested on: cytotoxic cells; assay: In vitro development of cytotoxic cells; assay type: cell-based
# [2] = Acute toxicity in mouse; details: in vivo
# Source text: (§1) The acute toxicity of podophyllotoxin has been determined on various test animals and by various ways of administration.
# [3] = Solubility in water; assay type: physicochemical; details: in its pure state
# Source text: The compound podophyllotoxin has the following physical data in its pure state: […]
# [4] = Acute toxicity in rat; details: in vivo
# Source text: as §1
# [5] = tested on: psoriasis vulgaris lesions; assay: Clinical investigation in psoriasis vulgaris patients, topical cream; assay type: in vivo, human (patients)
# Protocol: A clinical investigation was carried out with totally 152 patients of an age between 19 and 71 years (mean value 46.1 years) afflicted with psoriasis vulgaris. The patients were divided into three groups of 50, 51 and 51 persons who were treated topically with a cream containing 0.1, 0.25 and 0.5% of podophyllotoxin, respectively. Each patient was treated only on a specific attacked area of the body while other attacked areas served as comparison. The severity of the attack was judged at the start of the treatment, and 2, 4, 8, 12 and 16 weeks after this, no treatment being carried out during the last period of 4 weeks. The investigation was carried out with double blind technique and the results were treated statistically.
# [6] = tested on: formation of specific antibodies; assay: Antibody formation in mice injected with sheep erythrocytes; assay type: in vivo; details: daily injections after administration of erythrocytes, spleen
# Source text: Injection with a suspension of erythrocytes from sheep to mice causes formation of specific antibodies against this antigen. This reaction which normally is very strong requires a cooperation between different cell types, substantially macrophages, T and B lymphocytes, and can easily be detected in the spleen of the test animals.
# [7] = Acute toxicity in rabbit; details: in vivo, topical or ocular, dermal
# Source text: as §1
# [8] = tested on: proliferation of cells; assay: In vitro proliferation of cells caused by mitogenic lectins or cells from a non-related individual; assay type: cell-based
# [9] = tested on: Plasmodium falciparum; assay: Clinical effect against malaria (number of asexual parasites in blood of patients); assay type: in vivo; details: individual patient
# Protocol: The effect against malaria was determined clinically on a number of patients which had been attacked by the malaria parasite Plasmodium falciparum. Podophyllotoxin was administered in two different doses and the number of parasites in the patients was determined for each day and was noted as the number of asexual parasites per cubic millimeter of blood.
smiles,measurement,setting,value
COc1cc([C@@H]2c3cc4c(cc3[C@H](O)[C@H]3COC(=O)[C@H]23)OCO4)cc(OC)c1OC [podophyllotoxin],inhibition of development of cytotoxic cells,[1],inhibits the development of cytotoxic cells
same,effects at markedly lower doses (development of cytotoxic cells),[1]; markedly lower doses,at markedly lower doses these effects increase
same,LD50,[2]; iv,20 mg/kg
same,LD50,[2]; po,100 mg/kg
same,solubility,[3],120 µg/mL
same,LD50,[4]; iv,10 mg/kg
same,LD50,"[4]; topical or ocular, dermal",500 mg/kg
same,reversibility of secondary effects,[5]; after interruption of the treatment,disappeared after interruption of the treatment
same,difference between treated and untreated lesions,[5]; after two weeks and in the course of the treatment,statistically significant difference
same,patients free from symptoms or with only mild ones,"[5]; at the fifth control, untreated lesions: only two patients",70-75%
same,improvement of severity of treated lesions with associated symptoms,"[5]; cream 0.1, 0.25 and 0.5%, all three dosage levels",statistically significant improvements
same,patients reporting secondary effects such as rash,"[5]; of 152 patients, three cream strengths together",11 patients
same,deterioration of severity or symptoms of treated lesions in follow-up,"[5]; weeks 13 to 16, no treatment",no deterioration occurred
same,inhibition of antibody formation against sheep erythrocytes,[6],inhibited in a dose-dependent way
same,LD50,[7],200 mg/kg
same,time to recover complete reactivity to the stimuli,[8]; cells treated with podophyllotoxin,≤ 24 h
same,effects at markedly lower doses (proliferation),"[8]; in vitro, markedly lower doses",at markedly lower doses these effects increase
same,inhibition of proliferation of cells,"[8]; in vitro, mitogenic lectins or cells from a non-related individual",inhibits the proliferation of cells
same,Remarks (outcome),[9]; 1.5 mg per day (t.i.d.),Marked reduction of parasites
same,"number of asexual parasites, day 0",[9]; 1.5 mg per day (t.i.d.),660 asexual parasites per cubic mi and 13710 asexual parasites per cubic mi and 1410 asexual parasites per cubic mi and 960 asexual parasites per cubic mi and 13080 asexual parasites per cubic mi and 4380 asexual parasites per cubic mi
same,"number of asexual parasites, day 1",[9]; 1.5 mg per day (t.i.d.),180 asexual parasites per cubic mi and 3000 asexual parasites per cubic mi and 360 asexual parasites per cubic mi and 90 asexual parasites per cubic mi and 510 asexual parasites per cubic mi and 1560 asexual parasites per cubic mi
same,"number of asexual parasites, day 2",[9]; 1.5 mg per day (t.i.d.),0 asexual parasites per cubic mi and 120 asexual parasites per cubic mi and 180 asexual parasites per cubic mi
same,"number of asexual parasites, day 3",[9]; 1.5 mg per day (t.i.d.),0 asexual parasites per cubic mi and 660 asexual parasites per cubic mi
same,"number of asexual parasites, day 4",[9]; 1.5 mg per day (t.i.d.),180 asexual parasites per cubic mi and 0 asexual parasites per cubic mi and 60 asexual parasites per cubic mi and 1400 asexual parasites per cubic mi
same,"number of asexual parasites, day 5",[9]; 1.5 mg per day (t.i.d.),270 asexual parasites per cubic mi and 0 asexual parasites per cubic mi and 60 asexual parasites per cubic mi
same,"number of asexual parasites, day 6",[9]; 1.5 mg per day (t.i.d.),270 asexual parasites per cubic mi and 0 asexual parasites per cubic mi and 60 asexual parasites per cubic mi
same,"number of asexual parasites, day 7",[9]; 1.5 mg per day (t.i.d.),270 asexual parasites per cubic mi and 0 asexual parasites per cubic mi and 60 asexual parasites per cubic mi
same,Remarks (outcome),[9]; 3.0 mg per day (t.i.d.),Cured
same,"number of asexual parasites, day 0",[9]; 3.0 mg per day (t.i.d.),2880 asexual parasites per cubic mi and 2060 asexual parasites per cubic mi and 6080 asexual parasites per cubic mi and 320 asexual parasites per cubic mi
same,"number of asexual parasites, day 1",[9]; 3.0 mg per day (t.i.d.),2520 asexual parasites per cubic mi and 1600 asexual parasites per cubic mi and 2000 asexual parasites per cubic mi and 60 asexual parasites per cubic mi
same,"number of asexual parasites, day 2",[9]; 3.0 mg per day (t.i.d.),60 asexual parasites per cubic mi and 0 asexual parasites per cubic mi
same,"number of asexual parasites, day 3",[9]; 3.0 mg per day (t.i.d.),540 asexual parasites per cubic mi and 0 asexual parasites per cubic mi
same,"number of asexual parasites, day 4",[9]; 3.0 mg per day (t.i.d.),600 asexual parasites per cubic mi and 0 asexual parasites per cubic mi
same,"number of asexual parasites, day 5",[9]; 3.0 mg per day (t.i.d.),600 asexual parasites per cubic mi and 0 asexual parasites per cubic mi
same,"number of asexual parasites, day 6",[9]; 3.0 mg per day (t.i.d.),0 asexual parasites per cubic mi
same,"number of asexual parasites, day 7",[9]; 3.0 mg per day (t.i.d.),0 asexual parasites per cubic mi
